Data: US11066481B2, “Antibodies to coagulation factor XIa and uses thereof” (THE REGENTS OF THE UNIVERSITY OF CALIFORNIA, priority 2015, dated 2021)

Key:
[1] = system: rabbit model of venous thromboembolism (VTE); assay: rabbit model of venous thromboembolism (VTE); type: in vivo
Description: All procedures performed on these animals were in accordance with regulations and established guidelines and were reviewed and approved by an Institutional Animal Care and Use Committee or through an ethical review process. Rabbits were anesthetized according to established protocols. […] Furthermore, for the Rivaroxaban treated animals, the i.v. bolus injection was supplemented by a continuous i.v. infusion of Rivaroxaban to maintain proper dosing throughout the duration of the study due to short half-life concerns. For all treatment groups, 30 minutes after bolus injection, a sheath of the appropriate size was placed in the left femoral vein. Then a wire of approximately 14 cm with 8 strands of cotton thread attached to it (each 3 cm long) was inserted into the femoral vein. Fluoroscopy was used for guidance of the wire with the threads towards the target area in the vena cava. […] After 90 minutes the device was removed by surgical dissection, cut from the wire, and the clot-containing cotton threads were weighed after having been blotted dry. Prior to IgG dosing, and also prior to surgical removal of threads, a blood sample was drawn for preparation of serum (PK) and plasma (for PD biomarkers APTT and PT).

rabbit cuticle bleeding = rabbit cuticle bleeding study; type: in vivo; details: 1.5 mg/kg i.v. bolus plus infusion
Protocol: All procedures performed on these animals were in accordance with regulations and established guidelines and were reviewed and approved by an Institutional Animal Care and Use Committee or through an ethical review process. Rabbits were anesthetized according to established protocols. After anesthesia and cannulation etc., both front paws were shaved to remove fur that would otherwise contaminate saline and wick it out of the tube. Pre dosing bleeds were performed on the middle digit of the left front paw. Post dosing bleeds were performed on the same digit on the right front paw. There were four dosing groups of 10 animals each. […] Furthermore, for the Rivaroxaban treated animals, the i.v. bolus injection was supplemented by a continuous i.v. infusion of Rivaroxaban to maintain proper dosing throughout the duration of the study due to short half-life concerns. Nails were transilluminated with white light to visualize the quick and cut with a razor blade so as to transect the cuticle approximately 1 mm proximal to the apex of the quick. The nail was then immediately immersed in a saline solution in 10×75 mm 3 ml polystyrene (clear) tube. The tube with saline was stored at 37° C. before the cut. The nail was kept in the solution and time to cessation of flow was measured. […] At the end of the blood collection the tube is capped and inverted 5 times and centrifuged at 200 to 250×g for 15 min. The blood cell pellet was resuspended in 3 mL erythrocyte lysis buffer (8.3 g/L NH4Cl, 1.0 g/LKHCO3, and 0.037 g/L EDTA in water). After at least 15 min of lysis time, hemoglobin (Hb) concentration was measured at OD 575 nm using a Spectrophotometer) and expressed as arbitrary absorbance units. As indicated above, baseline cuticle bleeding times were performed prior to dosing. […] 30 minutes later a second cuticle cut was made and bleeding times recorded and blood loss measured. […]

[2] = 1.5 mg/kg i.v. bolus plus continuous infusion

- total blood loss following cuticle cutting (rabbit cuticle bleeding): significantly increased total blood loss
SMILES: O=C(NC[C@H]1CN(c2ccc(N3CCOCC3=O)cc2)C(=O)O1)c1ccc(Cl)s1 [Rivaroxaban]
- any read outs measured (thrombus weight, APTT, PT) ([1]; 0.045 mg/kg i.v. bolus plus continuous infusion): No effects
- thrombus/clot weight [1, 2]: decreased thrombus/clot weight
- time to clotting in APTT assay [1, 2]: prolonged time to clotting
- time to clotting in PT assay [1, 2]: prolonged time to clotting
- time to clotting in APTT coagulation assay (rabbit cuticle bleeding): significant prolongation in time to clotting
- time to clotting in PT coagulation assay (rabbit cuticle bleeding): significant prolongation in time to clotting
